Measured values taken from patent US10975037B2 (priority 2018, dated 2021).
Structures can show the parent of a compound that is named as a salt. Where two headings read alike, the source gives them in different places.

Tests used:
[1] = target: human RORγt ligand binding domain (RORγt LBD) (Homo sapiens (Human), UniProt P51449); assay: RORγt ThermoFluor® assay (thermal shift binding)
In short: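 Thermal shift with 0.065 mg/mL RORγt LBD and 60 μM 1,8-ANS in 100 mM Hepes pH 7.0, 10 mM NaCl, 2.5 mM GSH, 0.002% Tween-20.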

full-length human RORγt = full-length human RORγt (Homo sapiens (Human), UniProt P51449); assay: RORγt (full-length human) reporter assay, conditions A or B, HEK293T cells; format: cell-based; details: for IC50: RORγt (FL) Reporter Assay A or B, IC50, HEK293T cells; for inhibition at 6 µM: read-out: RORγt (FL) Reporter Assay A or B, % inhibition @ 6 μM, 6 μM compound concentration; for inhibition at 3 µM: 3 μM compound concentration (footnote *)
full-length human RORγt, sequence (P51449 other isoform, or with tags, fused parts or gaps): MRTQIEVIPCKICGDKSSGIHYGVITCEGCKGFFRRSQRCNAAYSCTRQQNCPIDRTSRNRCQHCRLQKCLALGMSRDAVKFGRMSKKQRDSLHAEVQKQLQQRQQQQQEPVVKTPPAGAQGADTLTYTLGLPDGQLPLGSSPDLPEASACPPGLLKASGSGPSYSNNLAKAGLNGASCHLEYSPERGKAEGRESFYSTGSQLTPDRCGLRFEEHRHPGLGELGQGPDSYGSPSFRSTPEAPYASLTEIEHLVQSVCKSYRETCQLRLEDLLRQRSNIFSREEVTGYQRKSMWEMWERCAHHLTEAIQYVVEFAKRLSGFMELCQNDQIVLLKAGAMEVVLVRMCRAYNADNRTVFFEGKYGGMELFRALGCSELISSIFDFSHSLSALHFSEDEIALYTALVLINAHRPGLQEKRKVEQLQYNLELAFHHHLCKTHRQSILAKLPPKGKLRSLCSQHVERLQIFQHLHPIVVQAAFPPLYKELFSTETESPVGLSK
In short: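 Dual-luciferase read-out was taken after an overnight (16–20 h) compound exposure. Firefly data were scaled between DMSO-only and saturating reference compound, Renilla-normalized, then plotted against concentration for IC50.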

[2] = read-out: ThermoFluor® Assay, Kd
[3] = HEK-293T, 2 μM compound concentration, read-out: RORγt (FL) Reporter Assay A or B, % inhibition
[4] = HEK-293T, read-out: RORγt (FL) Reporter Assay A or B, % inhibition

human RORγt ligand binding domain (RORγt LBD), sequence (P51449 other isoform, or with tags, fused parts or gaps): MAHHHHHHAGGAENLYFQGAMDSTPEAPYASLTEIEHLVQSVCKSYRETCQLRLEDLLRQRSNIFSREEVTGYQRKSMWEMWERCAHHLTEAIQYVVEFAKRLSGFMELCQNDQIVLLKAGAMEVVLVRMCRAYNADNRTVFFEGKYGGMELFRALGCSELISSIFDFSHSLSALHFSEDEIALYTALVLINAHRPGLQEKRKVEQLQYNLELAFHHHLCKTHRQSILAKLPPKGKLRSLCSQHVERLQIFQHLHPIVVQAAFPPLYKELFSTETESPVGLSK

| SMILES | IC50 (full-length human RORγt) [nM] | Kd [1, 2] [nM] | other results |
| --- | --- | --- | --- |
| CCn1nc(C(=O)NC[C@H]2CC[C@H](S(C)(=O)=O)CC2)c(Cl)c1-c1ccc(C2(O)CCC(C(F)(F)F)CC2)cc1OC(F)F (single isomer, unassigned) [Example 114, 4-Chloro-5-(2-(difluoromethoxy)-4-((1s*,4s*)-1-hydroxy-4-(trifluoromethyl)cyclohexyl)phenyl)-1-ethyl-N-(((1r,4r)-4-(methylsulfonyl)cyclohexyl)methyl)-1H-pyrazole-3-carboxamide] | 410 |  | Kd ([1]; ThermoFluor® Assay, Kd): 980 nM; inhibition at 1 µM (full-length human RORγt; HEK-293T, 1 μM compound concentration (footnote ***), read-out: RORγt (FL) Reporter Assay A or B, % inhibition): 82% |
| CCn1nc(C(=O)NC[C@]2(O)CC[C@@H](S(C)(=O)=O)CC2)c(C)c1-c1ccc(CCC(F)(F)F)cc1OC(F)F [Example 223, 5-(2-(Difluoromethoxy)-4-(3,3,3-trifluoropropyl)phenyl)-1-ethyl-N-(((1s,4s)-1-hydroxy-4-(methylsulfonyl)cyclohexyl)methyl)-4-methyl-1H-pyrazole-3-carboxamide] | 2.3 | 10 | inhibition at […] (full-length human RORγt; HEK-293T, 0.33 μM compound concentration (footnote *****), read-out: RORγt (FL) Reporter Assay A or B, % inhibition): 68% |
| CCn1nc(C(=O)NC[C@]2(O)CC[C@@H](S(C)(=O)=O)CC2)c(C#N)c1-c1ccc(CC(C)C(F)(F)F)cc1OC (stereo partly drawn) [Example 122, 4-Cyano-1-ethyl-N-(((1s,4s)-1-hydroxy-4-(methylsulfonyl)cyclohexyl)methyl)-5-(2-methoxy-4-(3,3,3-trifluoro-2-methylpropyl)phenyl)-1H-pyrazole-3-carboxamide] | 150 | 27 | inhibition at 6 µM (full-length human RORγt; HEK-293T): 104% |
| CCn1nc(C(=O)NC[C@H]2CC[C@@H](S(C)(=O)=O)CC2)c(Cl)c1-c1ccc(N[C@H](C)C(F)(F)F)cc1Cl [Example 175, 4-Chloro-5-(2-chloro-4-(((R)-1,1,1-trifluoropropan-2-yl)amino)phenyl)-1-ethyl-N-(((1s,4S)-4-(methylsulfonyl)cyclohexyl)methyl)-1H-pyrazole-3-carboxamide] | 510 | 230 | inhibition at 2 µM (full-length human RORγt; [3]): 88% |
| CCn1nc(C(=O)NC[C@]2(O)CC[C@@H](S(C)(=O)=O)C[C@H]2O)c(Cl)c1-c1ccc(C[C@@H](C)C(F)(F)F)cc1OC(F)F (stereo in doubt) [Example 137, 4-Chloro-5-(2-(difluoromethoxy)-4-((R*)-3,3,3-trifluoro-2-methylpropyl)phenyl)-N-(((1R*,2R*,4R*)-1,2-dihydroxy-4-(methylsulfonyl)cyclohexyl)methyl)-1-ethyl-1H-pyrazole-3-carboxamide] | 4.8 |  | Kd ([1]; ThermoFluor® Assay, Kd): 2 nM; inhibition at 3 µM (full-length human RORγt; [4]): 102% |
| CCn1nc(C(=O)NC[C@H]2CC[C@H](S(C)(=O)=O)CC2)c(Cl)c1-c1ccc(N[C@H](C)C(F)(F)F)cc1OC(C)C [Example 207, 4-Chloro-1-ethyl-5-(2-isopropoxy-4-(((R)-1,1-trifluoropropan-2-yl)amino)phenyl)-N-(((1r,4R)-4-(methylsulfonyl)cyclohexyl)methyl)-1H-pyrazole-3-carboxamide] | 40 | 10 | inhibition at 6 µM (full-length human RORγt; HEK-293T): 101% |
| CCn1nc(C(=O)NC[C@@]2(O)CC[C@H](S(C)(=O)=O)C[C@@H]2O)c(C)c1-c1ccc(C[C@@H](C)C(F)(F)F)cc1OC(F)F (stereo in doubt) [Example 141, 5-(2-(Difluoromethoxy)-4-((R*)-3,3,3-trifluoro-2-methylpropyl)phenyl)-N-(((1S*,2S*,4S*)-1,2-dihydroxy-4-(methylsulfonyl)cyclohexyl)methyl)-1-ethyl-4-methyl-1H-pyrazole-3-carboxamide] | 85 |  | Kd ([1]; ThermoFluor® Assay, Kd): 5.8 nM; inhibition at 3 µM (full-length human RORγt; [4]): 84% |
| CCn1nc(C(=O)NC[C@H]2CC[C@H](S(C)(=O)=O)CC2)c(Cl)c1-c1ccc(N[C@H](C)C(F)(F)F)cc1C(C)C [Example 204, 4-Chloro-1-ethyl-5-(2-isopropyl-4-(((R)-1,1,1-trifluoropropan-2-yl)amino)phenyl)-N-(((1r,4R)-4-(methylsulfonyl)cyclohexyl)methyl)-1H-pyrazole-3-carboxamide] | 53 | 13 | inhibition at 2 µM (full-length human RORγt; [3]): 102% |
| CCOc1cc(N[C@H](C)C(F)(F)F)ccc1-c1c(Cl)c(C(=O)NC[C@H]2CC[C@H](S(C)(=O)=O)CC2)nn1CC [Example 205, 4-Chloro-5-(2-ethoxy-4-(((R)-1,1,1-trifluoropropan-2-yl)amino)phenyl)-1-ethyl-N-(((1r,4R)-4-(methylsulfonyl)cyclohexyl)methyl)-1H-pyrazole-3-carboxamide] | 29 | 5.4 | inhibition at 2 µM (full-length human RORγt; [4]): 104% |
| CCn1nc(C(=O)NC[C@]2(O)CC[C@@H](S(C)(=O)=O)C[C@H]2N)c(Cl)c1-c1ccc(CC(C)(C)C(F)(F)F)cc1OC(F)F (single isomer, unassigned) [Example 6, N-(((1R*,2R*,4R*)-2-Amino-1-hydroxy-4-(methylsulfonyl)cyclohexyl)methyl)-4-chloro-5-(2-(difluoromethoxy)-4-(3,3,3-trifluoro-2,2-dimethylpropyl)phenyl)-1-ethyl-1H-pyrazole-3-carboxamide Hydrobromide] | 29 |  | Kd ([1]; ThermoFluor® Assay, Kd): 2.4 nM; inhibition at 3 µM (full-length human RORγt; [4]): 117% |
| CCn1nc(C(=O)NC[C@H]2CC[C@H](S(C)(=O)=O)CC2)c(Cl)c1-c1c(F)cc(N[C@H](C)C(F)(F)F)cc1F [Example 196, 4-Chloro-5-(2,6-difluoro-4-(((R)-1,1,1-trifluoropropan-2-yl)amino)phenyl)-1-ethyl-N-(((1r,4R)-4-(methylsulfonyl)cyclohexyl)methyl)-1H-pyrazole-3-carboxamide] | 20 | 5.4 | inhibition at 2 µM (full-length human RORγt; [3]): 101% |
| CCn1nc(C(=O)NC[C@]2(C#N)CC[C@@H](S(C)(=O)=O)CC2)c(Cl)c1-c1ccc(CC(C)(C)C(F)(F)F)cc1 [Example 169, 4-Chloro-N-(((1s*,4s*)-1-cyano-4-(methylsulfonyl)cyclohexyl)methyl)-1-ethyl-5-(4-(3,3,3-trifluoro-2,2-dimethylpropyl)phenyl)-1H-pyrazole-3-carboxamide] | 41 | 3.4 | inhibition at […] (full-length human RORγt; HEK-293T, 0.22 μM compound concentration (footnote *******), read-out: RORγt (FL) Reporter Assay A or B, % inhibition): 85% |
| CCn1nc(C(=O)NC[C@H]2CC[C@H](S(C)(=O)=O)CC2)c(Cl)c1-c1ccc(OC2CCC(F)(F)CC2)cc1OC [Example 219, 4-Chloro-5-(4-((4,4-difluorocyclohexyl)oxy)-2-methoxyphenyl)-1-ethyl-N-(((1r,4r)-4-(methylsulfonyl)cyclohexyl)methyl)-1H-pyrazole-3-carboxamide] | 30 | 9.9 | inhibition at 0.67 µM (full-length human RORγt; [4]): 98% |
| CCn1nc(C(=O)NC[C@H]2CC[C@H](S(C)(=O)=O)CC2)c(Cl)c1-c1ccc(N[C@H](C)C(F)(F)F)cc1C [Example 184, 4-Chloro-1-ethyl-5-(2-methyl-4-(((R)-1,1,1-trifluoropropan-2-yl)amino)phenyl)-N-(((1r,4R)-4-(methylsulfonyl)cyclohexyl)methyl)-1H-pyrazole-3-carboxamide] | 52 | 13 | inhibition at 2 µM (full-length human RORγt; [3]): 101% |
| CCn1nc(C(=O)NC[C@]2(C(N)=O)CC[C@@H](S(C)(=O)=O)CC2)c(Cl)c1-c1ccc(N[C@H](C)C(F)(F)F)cc1OC [Example 35, N-(((1s,4S)-1-carbamoyl-4-(methylsulfonyl)cyclohexyl)methyl)-4-chloro-1-ethyl-5-(2-methoxy-4-(((R)-1,1,1-trifluoropropan-2-yl)amino)phenyl)-1H-pyrazole-3-carboxamide] | 730 | 34 | inhibition at 6 µM (full-length human RORγt; HEK-293T): 102% |
